Test results reported in US20040253665A1, “Novel peptide-producing enzyme, microbe producing the enzyme and method for dipeptide synthesis using them” (AJINOMOTO CO., INC., priority 2002, published 2004).
Read-outs that look alike come from different tables or passages of the source. Non-standard residues stand in square brackets, D forms with d. Residues, ends and D or L forms follow the SMILES beside them. *: point of attachment. 2Nal = N[C@@H](Cc1ccc2ccccc2c1)C(=O)O; Tle = CC(C)(C)[C@H](N)C(=O)O; tBu = CC(C)(C)*

Tests used:
[1] = system: Empedobacter brevis strain FERM BP-8113 microbial cells; assay: Production of peptide using microbial cells of Empedobacter brevis; format: cell-based; details: microbial cell suspension 100 g/L mixed 1:1 with 200 mM carboxy component and 400 mM amino acid, pH 9.0, 10 mM EDTA, 18° C., 2 hours
Description: A 50 mL medium (pH 6.2) containing 5 grams (hereinafter, “g”) of glucose, 5 g of ammonium sulfate, 1 g of monopotassium phosphate, 3 g of dipotassium phosphate, 0.5 g of magnesium sulfate, 10 g of yeast extract and 10 g of peptone in 1 liter (hereinafter, “L”) was transferred to a 500 mL Sakaguchi flask and sterilized at 115° C. for 15 minutes. This medium,was then inoculated with one loopful of the culture broth of Empedobacter brevis strain FERM BP-8113 (Depositary institution: National Institute for Advanced Industrial Science and Technology, International Patent Organism Depositary, Address of depositary institution: Chuo Dai-6, 1-1 Higashi 1-Chome, Tsukuba-shi, Ibaraki-ken, Japan, International deposit transfer date: Jul. 8, 2002) that had been cultured at 30° C. for 16 hours in the same medium, followed by shake culturing at 30° C. for 16 hours and 120 strokes/min.

[2] = system: peptide-producing enzyme (Mono S fraction) from Empedobacter brevis strain FERM BP-8113; assay: Enzyme substrate specificity (1)-(10), (13), (14); format: biochemical; details: L-amino acid 150 mM, pH 9.0, 25° C., 3 hours
Method in brief: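 Mono S-purified peptide-forming enzyme from Empedobacter brevis FERM BP-8113, given L-amino acid esters (hydrochlorides) or amides as carboxy component with amino acids, C-protected amino acids, methylamine, β-amino acids or peptides as amine component. Dipeptide/oligopeptide product quantified; Tween-80 0.1% added with L-Trp-OMe.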

[3] = system: enzyme (SP-Sepharose HP fraction) derived from Sphingobacterium sp. strain FERM BP-8124; format: biochemical; design: key to Produced peptide (mM): +: those peptides for which production was confirmed but which were unable to be quantified due to the absence of a standard; a trace amount; details: 0.33 units enzyme, pH 9.0, 25° C., 1.5 hours
Description: Substrate specificity was examined for enzyme derived from Sphingobacterium sp. strain FERM BP-8124 (Depositary institution: National Institute for Advanced Industrial Science and Technology, International Patent Organism Depositary, Address of depositary institution: Central. 6, 1-1-1 Higashi, Tsukuba City, Ibaraki Prefecture, Japan, International deposit date: Jul. 22, 2002). 100 μl of 100 mM borate buffer (pH 9.0) containing the various carboxy components at a final concentration of 100 mM and the various amine components at a final concentration of 150 mM shown in Tables 15-1 to 15-4, the SP-Sepharose HP fraction enzyme purified in Example 22 (addition of 0.33 units in the reaction liquid) and 10 mM EDTA were allowed to react at 25° C. for 1.5 hours. […] In addition, hydrochlorides were used for all carboxy components.
Substrate specificity with respect to oligopeptide production was examined for enzyme derived from Sphingobacterium sp. strain FERM BP-8124 (Depositary institution: National Institute for Advanced Industrial Science and Technology,.International Patent Organism Depositary, Address of depositary institution: Chuo Dai-6, 1-1 Higashi 1-Chome, Tsukuba-shi, Ibaraki-ken, Japan, International deposit date: Jul. 22, 2002). A 100 μl aliquot of 100 mM borate buffer (pH 9.0) containing the various carboxy components at a final concentration of 100 mM and the various amine components at a final concentration of 150 mM shown in Table 16, the SP-Sepharose HP fraction enzyme purified in Example 22 (addition of 0.33 units in the reaction liquid) and 10 mM EDTA were allowed to react for 1.5 hours at 25° C. Furthermore, hydrochloride salts were used for all carboxy components.

[4] = system: peptide-producing enzyme (Mono S fraction) from Empedobacter brevis strain FERM BP-8113; assay: Enzyme substrate specificity (1)-(10), (13), (14); format: biochemical; design: key: +: those peptides for which production was confirmed but which were unable to be quantified due to the absence of a standard; a trace amount
Excerpt: Ester specificity was examined in the case of using L-amino acid ester for the carboxy component. […] The amounts of L-Ala-L-Gln produced in this reaction are shown in Table 4 (HCl represents hydrochloride in Table 4). Peptide production was examined in the case of using L-alanine methyl ester for the carboxy component and using various L-amino acids for the amine component. […] (The “+” mark indicates those peptides for which production was confirmed but which were unable to be quantified due to the absence of a standard, while “tr” indicates a trace amount.) Peptide production was examined in the case of using various types of L-amino acid methyl esters for the carboxy component and using L-glutamine for the amine component. […] Peptide production was examined in the case of using various L-amino acid methyl esters for the carboxy component and various L-amino acids for the amine component. […] (The “tr” indicates a trace amount.) Furthermore, Tween-80 was added to the reaction system to a final concentration of 0.1% in the case of using L-Trp-OMe. (The “+” mark indicates those peptides for which production was confirmed but which were unable to be quantified due to the absence of a standard.) […] (The “tr” indicates a trace amount.) Peptide production was examined using various L-amino acid amides for the carboxy component, and various L-amino acids for the amine component. […] Peptide production was examined in the case of using various L-alanine methyl esters for the carboxy component and C-protected L-amino acids for the amine component. […] Peptide production was examined in the case of using various amino acid methyl esters for the carboxy component and methylamine for the amine component. […] Peptide production was examined in the case of using β-amino acid ester for the carboxy component or β-amino acid for the amine component. […] (The “tr” indicates a trace amount.) Oligopeptide production was examined in the case of using L-amino acid ester for the carboxy component and peptide for the amine component. […] Substrate specificity was additionally assessed using the same enzyme fraction as that used in Example 5. […] (A “+” mark indicates those for which production was confirmed but which were unable to be quantified due to the absence of a standard, while “tr” indicates a trace amount). Substrate specificity with respect to oligopeptide production was assessed using the same enzyme fraction as Example 26. […] (A “+” mark indicates those for which production was confirmed but which were unable to be quantified due to the absence of a standard, while “tr” indicates a trace amount). It should be noted that hydrochlorides were used for all of the carboxy components.

[5] = 100 mM L-alanine methyl ester hydrochloride
[6] = Table 15-1, carboxy component 100 mM, amine component 150 mM
[7] = 100 mM L-alanine methyl ester hydrochloride, L-amino acid 150 mM, pH 9.0, 25° C., 3 hours
[8] = L-amino acid methyl ester hydrochloride 100 mM
[9] = Table 15-3, carboxy component 100 mM, amine component 150 mM
[10] = L-amino acid methyl ester hydrochloride 100 mM, 150 mM L-glutamine, pH 9.0, 25° C., 3 hours
[11] = carboxy component 100 mM, amine component 150 mM, 0.1 unit enzyme, 25° C., reaction time 3 hr

C[C@H](N)C(=O)N[C@@H](Cc1ccccc1)C(=O)O [L-Ala-L-Phe]
Produced peptide [1]: 62.4 mM
Produced peptide [2, 5]: 74.4 mM
Produced peptide [3, 6]: 69.5 mM

C[C@H](N)C(=O)N1CCC[C@H]1C(=O)O [L-Ala-L-Pro] (H-Ala-Pro-OH)
Produced peptide (mM) [4, 7]: tr
Produced peptide [3, 6]: 1.5 mM

CC(C)C[C@H](NC(=O)[C@@H](N)[C@@H](C)O)C(=O)O [L-Thr-L-Leu] (H-Thr-Leu-OH)
Produced peptide [1]: 23.0 mM
Produced peptide [2, 8]: 28.4 mM
Produced peptide [3, 9]: 15.3 mM

C[C@H](N)C(=O)N[C@@H](CO)C(=O)O [L-Ala-L-Ser] (H-Ala-Ser-OH)
Produced peptide [1]: 51.3 mM
Produced peptide [2, 5]: 62.5 mM
Produced peptide [3, 6]: 43.8 mM

N[C@@H](CO)C(=O)N[C@@H](CO)C(=O)O [L-Ser-L-Ser] (H-Ser-Ser-OH)
Produced peptide [1]: 29.0 mM
Produced peptide [2, 8]: 38.0 mM
Produced peptide [3, 9]: 9.9 mM

C[C@H](N)C(=O)N[C@@H](CCCN=C(N)N)C(=O)O [L-Ala-L-Arg] (H-Ala-Arg-OH)
Produced peptide [1]: 72.1 mM
Produced peptide [2, 5]: 88.0 mM
Produced peptide [3, 6]: 72.2 mM

NCC(=O)N[C@@H](Cc1cnc[nH]1)C(=O)O [Gly-L-His] (H-Gly-His-OH)
Produced peptide [1]: 22.1 mM
Produced peptide [2, 8]: 31.6 mM
Produced peptide [3, 9]: 36.2 mM

C[C@H](N)C(=O)N[C@@H](Cc1cnc[nH]1)C(=O)O [L-Ala-L-His] (H-Ala-His-OH)
Produced peptide [1]: 52.1 mM
Produced peptide [2, 5]: 66.9 mM
Produced peptide ([2]; L-amino acid amide hydrochloride 100 mM as carboxy component): 3.9 mM
Produced peptide [3, 6]: 73.6 mM
Produced peptide (mM) ([3]; Table 15-4, amides or methylamine as components, 100 mM / 150 mM): tr

NC(=O)CC[C@H](NC(=O)[C@@H](N)CC(=O)O)C(=O)O [α-L-Asp-L-Gln] (H-Asp-Gln-OH)
Produced peptide (mM) [4, 10]: tr
Produced peptide ([3]; Table 15-2, carboxy component 100 mM, L-Gln 150 mM): 0.05 mM

CC[C@H](C)[C@H](N)C(=O)N[C@@H](CCSC)C(=O)O [L-Ile-L-Met] (H-Ile-Met-OH)
Produced peptide [1]: 8.3 mM
Produced peptide [2, 8]: 10.0 mM
Produced peptide [3, 9]: 5.1 mM

CC(C)C[C@H](NC(=O)[C@H](C)N)C(=O)O [L-Ala-L-Leu] (H-Ala-Leu-OH)
Produced peptide [1]: 38.2 mM
Produced peptide [2, 5]: 45.3 mM
Produced peptide [3, 6]: 33.0 mM

CSCC[C@H](NC(=O)[C@@H](N)C(C)C)C(=O)O [L-Val-L-Met] (H-Val-Met-OH)
Produced peptide [1]: 10.5 mM
Produced peptide [2, 8]: 10.3 mM
Produced peptide [3, 9]: 6.8 mM

CC(C)C[C@H](N)C(=O)N[C@@H](CCC(N)=O)C(=O)O [L-Leu-L-Gln] (H-Leu-Gln-OH)
Produced peptide (mM) [4, 10]: +

NC(=O)CCC(NC(=O)C(N)Cc1c[nH]c2ccccc12)C(=O)O [L-Trp-L-Gln] (H-Trp-Gln-OH; configuration not given here)
Produced peptide (mM) [4, 10]: +

NC(=O)CC[C@H](NC(=O)[C@@H](N)Cc1ccc(Cl)cc1)C(=O)O [H-Cl-F-Phe-H-Gln-OH]
Produced peptide (mM) ([4]; carboxy component 25 mM, amine component 50 mM, 0.1 unit enzyme, 25° C., reaction time 3 hr): tr

C[C@H](N)C(=O)N[C@@H](CS)C(=O)O [L-Ala-L-CySH] (H-Ala-Cys-OH)
Produced peptide (mM) [4, 7]: +
Produced peptide (mM) [3, 6]: +

NC(=O)CC[C@H](NC(=O)[C@@H](N)Cc1ccc(F)cc1)C(=O)O [H-p-F-Phe-H-Gln-OH]
Produced peptide (mM) [4, 11]: tr

CSCC[C@H](N)C(=O)N[C@@H](Cc1ccccc1)C(=O)O [L-Met-L-Phe] (H-Met-Phe-OH)
Produced peptide [1]: 28.5 mM
Produced peptide [2, 8]: 34.0 mM
Produced peptide [3, 9]: 8.9 mM

CC(C)(C)[C@H](N)C(=O)N[C@@H](CCC(N)=O)C(=O)O [H-t-Leu-H-Gln-OH] (H-[Tle]-Gln-OH)
Produced peptide (mM) [4, 11]: tr

NC(=O)CC[C@H](NC(=O)[C@@H](N)CC(N)=O)C(=O)O [L-Asn-L-Gln] (H-Asn-Gln-OH)
Produced peptide (mM) [4, 10]: +

NC(=O)CC[C@H](NC(=O)[C@@H](N)Cc1ccc2ccccc2c1)C(=O)O [H-2-Nal-H-Gln-OH] (H-[2Nal]-Gln-OH)
Produced peptide (mM) ([4]; carboxy component 40 mM, amine component 40 mM, 0.1 unit enzyme, 25° C., reaction time 3 hr): tr

NC(=O)CC[C@H](NC(=O)[C@@H](N)Cc1cnc[nH]1)C(=O)O [L-His-L-Gln] (H-His-Gln-OH)
Produced peptide (mM) [4, 10]: +

NCCCC[C@H](N)C(=O)N[C@@H](CCC(N)=O)C(=O)O [L-Lys-L-Gln] (H-Lys-Gln-OH)
Produced peptide (mM) [4, 10]: +

CC(C)(C)OC[C@H](N)C(=O)N[C@@H](CCC(N)=O)C(=O)O [H-Ser(tBu)-Gln-OH] (H-Ser(tBu)-Gln-OH)
Produced peptide (mM) ([4]; carboxy component 100 mM, amine component 150 mM, 0.1 unit enzyme, 25° C., reaction time 2 hr): tr
